These results are taken from patent US20150086986A1, “METHOD TO PREDICT THE PRESENCE OF INFLAMMATION OR ITACONIC ACID, IRG1 AND/OR PROTEIN IRG1 IN A SUBJECT AND PHARMACEUTICAL COMPOSITION FOR TREATING OR PREVENTING INFLAMMATION” (priority 2011, published 2015).

A short description of data set [1]: Cis-aconitate decarboxylase (CAD) activity assay of purified Flag-IRG1. The data set is classed as biochemical, Mus musculus. Particulars: peak activity fraction; 1 mM cis-aconitate, 30° C., 40 min, pH 7.1. As for the experimental part: HEK293T cells were extracted 48 hours after transfection by scraping them into a lysis buffer containing 25 mM Hepes, pH 7.1 and 1× protease inhibitor cocktail (Roche). After two freeze/thaw cycles, cell extracts were incubated for 30 min on ice in the presence of DNAse I (200 U/ml extract; Roche Applied Science) and 10 mM MgSO4. The crude cell extracts were centrifuged for 5 min at 16000×g (4° C.) and pellets were resuspended in lysis buffer for SDS-PAGE analysis. Flag-IRG1 was purified from the supernatant using the Flag®M purification kit, according to the manufacturer's instructions (Sigma Aldrich). […] Protein concentration was measured by the Bradford assay using Bradford reagent (Bio-Rad).
Cis-aconitate decarboxylase activity was measured by incubating cell extracts or purified protein fractions (10 μl) at 30° C. and for 40 min in a reaction mixture containing 25 mM Hepes, pH 7.1 and 1 mM cis-aconitate in a total volume of 100 μl. […] The dry residue was derivatized and itaconic acid was quantified by GC-MS as described below. Itaconic acid concentrations were calculated by comparing the corresponding GC/MS signals obtained in samples with the one obtained after injection of known amounts of itaconic acid standards. […]
Cis-aconitate decarboxylase activity was measured in cell extracts and purification fractions. […]

For data set [2], the system named is Salmonella enterica serovar Typhimurium. As to the kind of experiment: S. enterica growth in liquid minimal medium with acetate as unique carbon source. In kind it is cell-based. As to the method: To directly investigate the effect of itaconic acid on bacterial replication, S. enterica was grown in liquid minimal medium supplemented with acetate as the unique carbon source and various concentrations of itaconic acid. […] S. enterica was grown in liquid medium with acetate as unique carbon source in the presence of increasing concentrations of itaconic acid (5, 10, 50, 100 mM). The optical density (OD) was measured every hour to record the bacterial growth. Curves are calculated in % relative to time 0 and represent the mean of three independent experiments.

Another data set deals with Streptococcus pyogenes. As to the kind of experiment: Bacterial phagocytosis and killing assay in siRNA-transfected RAW264.7 macrophages infected with S. pyogenes. The data set is classed as cell-based. Conditions: streptococci compared with Salmonella. As for the experimental part:
Bacterial phagocytosis and killing assay were conducted to test the influence of the uptake of S. pyogenes by transfected (siRNA IRG1) mouse macrophages (RAW264.7 cell line) after 1 h, 2 h and 4 h of incubation.
Transfected RAW264.7 macrophages (with unspecific siRNA or IRG1 specific siRNA) were infected with Streptococcus pyogenes strain A20 at a multiplicity of infection (MOI) of 10:1 (10 bacteria per macrophage) and incubated for 1 h at 37° C., 5% CO2. Macrophages were then washed with sterile PBS, resuspended in complete medium containing […] gentamicin to kill non ingested bacteria and further incubated for 2 h at 37° C., 5% CO2. Macrophages were then disrupted with dH2O to release intracellular bacteria (this was considered time 0 h relative to gentamicin treatment) or 1, 2, 4 h later (this was considered time 1, 2, 4 h relative to gentamicin treatment) and the amount of viable intracellular bacteria was determined by plating on blood agar.
RAW264.7 cells were transfected with either siRNA specific for IRG1 or with siRNA Ctr. […] Macrophages were then disrupted with H2O to release intracellular bacteria and the amount of viable intracellular bacteria was determined by plating on blood agar. […]

Data set [3] relates to bacterial isocytrate lyase (ICL). Particulars: literature reports; cited from earlier work.

Consider “Flag-IRG1: FLAG-tagged IRG1 protein purified from HEK293T cells transfected with a pCMV6-Entry-IRG1 expression plasmid”, for which the CAD specific activity entry in data set [1] was “about 40 nmol min^−1 mg protein^−1”.
For `C=C(CC(=O)O)C(=O)O` [itaconic acid], in data set [2] (5, 10, 50, 100 mM tested, OD every hour), the “itaconic acid concentration with significant effect on growth inhibition” value is “higher than 10 mM”. In data set [2] (increasing concentrations of itaconic acid), the bacterial growth inhibition entry was “dose-dependent growth inhibition”. For the same molecule, the “antimicrobial effect of itaconic acid” value with Streptococcus pyogenes is given as “less pronounced in streptococci than in Salmonella”. In addition, the “inhibition of isocitrate lyase” value in data set [3] is “inhibits”.
